This note sets out measurements from patent US12496218B1, “Fractionated topical ocular drug delivery methods and devices for use in the same” (Bausch + Lomb Ireland Limited, priority 2019, dated 2025).

For data set [1], the system named is humans. As to the kind of experiment: Intraocular pressure (IOP) in human subjects after topical ocular micro-dosing, conventional vs fractionated. The format is in vivo. The following applies: FIG. 5.
Data set [2] concerns humans. Description: Distance corrected near visual acuity (DCNVA) in human subjects after topical ocular micro-dosing, conventional vs fractionated.

Consider `CC[C@@H]1C(=O)OC[C@@H]1Cc1cncn1C` [pilocarpine], for which the “IOP (intraocular pressure) result, regimen B compared with regimen C” value in the data set on humans [1] (dose regimen B: fractionated 1% pilocarpine) is “performed much better”. The “IOP (intraocular pressure) result” value in the data set on humans [1] (dose regimen C: single dose of 2% pilocarpine) is “null IOP result”. Also, the toxic effects entry in the data set with humans [2] (2% pilocarpine, double dosing (regimen D) vs single dose (regimen C)) is listed as “absence of any evident toxic effects”. Further, in the data set on humans [2] (dose regimen B (fractionated 1% pilocarpine), both eyes, photopic conditions, FIG. 4, significant at 1 and 2 hours post-dosing), the “change from baseline DCNVA (letter score)” value is listed as “biggest gain from baseline at all time points”. Moreover, the “portion of subjects who gained more than 15 letters of distance corrected near vision compared with baseline” value in the data set with humans [2] (dose regimen B: double (fractionated) micro-dose of 1% pilocarpine, 5 minute interval, mesopic and photopic illumination) was 66.7%. The “eyes that achieved 3 lines of distance corrected near vision improvement” value with humans [2] (dose regimen C: single non fractionated dose of 2% pilocarpine) is reported as 33.3%; in the data set on humans [2] (dose regimen D: double dosing of 2% pilocarpine), 0%. Further, in the data set with humans [2] (double (fractionated) dose of 1% pilocarpine (B) vs single conventional dose of 1% pilocarpine (A)), the “distance corrected near visual acuity, group B compared with group A” value was “statistically significant improvement”. In the data set with humans [2] (fractionated micro-dose of 1% pilocarpine (B) vs 1 dose of 2% pilocarpine (C), mesopic and photopic), the “distance corrected near vision, regimen B compared with regimen C (same total drug amount)” value is listed as “performed significantly better”.
